Assay results: patent publication US20220362186A1, “Application of p-Hydroxyphenylpropionic Acid to Prepare Medicine for Preventing and Treating Respiratory Tract Infection” (SUN YAT-SEN UNIVERSITY, priority 2020, published 2022)
Converted amounts (≈) assume the structure as drawn. Where two headings read alike, the source gives them in different places. Marks after values point to notes of the source that are not given here. Blank lines part the entries; values can stand above or below the compound they belong to.

How the values were obtained:
[1] = system: Klebsiella pneumoniae; assay: Antibacterial experiment in vitro, broth microdilution (CLSI); format: cell-based; details: 20 h, 20-hour cultivation at 37° C.
[2] = system: lipopolysaccharide-induced mouse acute lung injury model; assay: Lipopolysaccharide-induced mouse acute lung injury model; format: in vivo, Balb/c mice; details: for LDH Activity in Lung / MPO Activity in Lung / MPO Content in Lung / Lung Tissue Dry-to-wet Ratio: 24 h after LPS; for Lung Tissue Dry-to-wet Ratio: mean ± SD
Protocol: Experimental method: the mice were acclimatized for 72 hours in an SPF animal room with constant temperature and constant humidity after purchase. The mice were randomly divided into four groups, that is, a blank control group (n=10), a model control group (n=10), a positive control medicine naringin group (n=11) and a p-hydroxyphenylpropionic acid group (n=11). The naringin group (180 mg/kg) and the p-hydroxyphenylpropionic acid group (51.6 mg/kg) were continuously subjected to intragastric administration once a day, for three days respectively; and the blank control group and the model control group were administered intragastrically with equivoluminal normal saline. The mice were anesthetized through intraperitoneal injection of 0.5 ml of pentobarbital sodium (65 mg/kg) three hours after the last intragastric administration. For the mice in the model group, the naringin group and the p-hydroxyphenylpropionic acid group, 50 μl of lipopolysaccharide 055:B5 solution (0.8 mg/ml) was slowly instilled into the nasal cavities of the mice until being completely absorbed, and a mouse acute lung injury model was established. The mice in the blank control group received nasal drops of the equivoluminal normal saline. The mice were killed by a cervical vertebra dislocation method 24 hours after the lipopolysaccharide modeling was performed, and the whole lung tissue of the mice was collected and put into a sterile centrifugal tube and was stored in liquid nitrogen within 30 seconds. After the lung tissue stored in the liquid nitrogen was placed at room temperature for 30 minutes, a wet weight was weighed. A drying vessel was dried at 80° C. for 24 hours and then was taken out and placed at room temperature for weighing. Then, the drying vessel was taken out after 1 hour of constant weight at 80° C. and was placed at room temperature for weighing. After the weight of the drying vessel was constant, the lung tissue was placed in the drying vessel, was dried at 80° C. for 48 hours and taken out, and was placed at room temperature for weighing. Then, the drying vessel was taken out after 1 hour of constant weight at 80° C. and was placed at room temperature for weighing. […] [formula] [formula] 24 hours after the lipopolysaccharide modeling was performed, the mice were killed and about 400 mg of lung tissue was collected. 1 ml of PBS-10% Triton was added into the lung tissue to serve as a lysis solution for homogenization. After the protein concentration was measured by a BCA protein concentration kit, the sample loading quantity was adjusted to 50 μg of total protein and 100 μl of total volume, and the content of myeloperoxidase (MPO), the activity of the MPO and the activity of lactic dehydrogenase (LDH) in the lung tissue sample were measured by kits. The data in the table are presented as mean±standard deviation, and analysis of difference among multiple groups is realized by a one-way analysis of variance Beforroni method and SPSS 22.0 software.

[3] = system: Staphylococcus aureus; assay: Antibacterial experiment in vitro, broth microdilution (CLSI); format: cell-based; details: 20-hour cultivation at 37° C.
[4] = system: chronic smoked mice; assay: Chronic lung injury caused by smoking (chronic smoked mice); format: in vivo, Balb/c mice; details: for Cchord / FEV50/FVC: 8 weeks smoking; for Lymphocyte count of alveolar lavage fluid / Monocyte count of alveolar lavage fluid / Neutrophil count of alveolar lavage fluid: BALF; for IL-1β in lung tissue / IL-6 in lung tissue / IL-18 in lung tissue / LTB4 in lung tissue / TNF-α in lung tissue: lung tissue homogenate, ELISA
[5] = 51.6 mg/kg intragastric once a day for three days
[6] = high-dose 60 mg/kg intragastric
[7] = 180 mg/kg intragastric once a day for three days

- MIC ([1]; strain K11): 64 µg/mL (≈ 385 µM)
- MIC ([1]; Klebsiella pneumoniae, strain K1): 128 µg/mL (≈ 770 µM)
- MIC ([1]; Klebsiella pneumoniae, strain K2): 128 µg/mL (≈ 770 µM)
- MIC ([1]; Klebsiella pneumoniae, strain K3): 128 µg/mL (≈ 770 µM)
- MIC ([1]; Klebsiella pneumoniae, strain K4): 128 µg/mL (≈ 770 µM)
- MIC ([1]; Klebsiella pneumoniae, strain K5): 128 µg/mL (≈ 770 µM)
- MIC ([1]; Klebsiella pneumoniae, strain K6): 64 µg/mL (≈ 385 µM)
- MIC ([1]; Klebsiella pneumoniae, strain K7): 128 µg/mL (≈ 770 µM)
- MIC ([1]; Klebsiella pneumoniae, strain K8): 64 µg/mL (≈ 385 µM)
- MIC ([1]; Klebsiella pneumoniae, strain K9): 64 µg/mL (≈ 385 µM)
- MIC ([1]; Klebsiella pneumoniae, strain K10): 64 µg/mL (≈ 385 µM)
- MIC ([1]; Klebsiella pneumoniae, strain K12): 64 µg/mL (≈ 385 µM)
- MIC ([3]; Staphylococcus aureus, strain S4, read-out: MIC): 64 µg/mL (≈ 385 µM)
- MIC ([3]; strain S1): 64 µg/mL (≈ 385 µM)
- MIC ([3]; strain S2): 64 µg/mL (≈ 385 µM)
- MIC ([3]; strain S3): 64 µg/mL (≈ 385 µM)
- MIC ([3]; strain S5): 64 µg/mL (≈ 385 µM)
- MIC ([3]; strain S6): 64 µg/mL (≈ 385 µM)
- MIC ([3]; strain S7): 64 µg/mL (≈ 385 µM)
- MIC ([3]; strain S8): 64 µg/mL (≈ 385 µM)
- MIC ([3]; strain S9): 64 µg/mL (≈ 385 µM)
- MIC ([3]; strain S10): 64 µg/mL (≈ 385 µM)
Compound: O=C(O)CCc1ccc(O)cc1 [HPPA, p-Hydroxyphenylpropionic acid]
- LDH Activity in Lung [2, 5]: 271.19 ± 27.70 ## units/gprot
- MPO Activity in Lung [2, 5]: 1.756 ± 0.190 ## units/gprot
- MPO Content in Lung [2, 5]: 324.09 ± 36.33 ## pg/ml
- Lung Tissue Dry-to-wet Ratio [2, 5]: 4.90 ± 0.52
- Cchord [4, 6]: 0.041 ± 0.0029 mL/cm H2O
- FEV50/FVC [4, 6]: 0.333 ± 0.040
- Lymphocyte count of alveolar lavage fluid [4, 6]: 1.014 ± 0.107# 10^5/mL
- Monocyte count of alveolar lavage fluid [4, 6]: 3.100 ± 0.554## 10^5/mL
- Neutrophil count of alveolar lavage fluid [4, 6]: 0.743 ± 0.190## 10^5/mL
- IL-1β in lung tissue [4, 6]: 35.27 ± 6.509 pg/mL
- IL-6 in lung tissue [4, 6]: 1027 ± 90.56 pg/mL
- IL-18 in lung tissue [4, 6]: 157.4 ± 9.098 pg/mL
- LTB4 in lung tissue [4, 6]: 7241 ± 1024 pg/mL
- TNF-α in lung tissue [4, 6]: 92.45 ± 13.24 pg/mL
- Cchord ([4]; low-dose 15 mg/kg intragastric): 0.0448 ± 0.0041 mL/cm H2O
- FEV50/FVC ([4]; low-dose 15 mg/kg intragastric): 0.360 ± 0.039
- Lymphocyte count of alveolar lavage fluid ([4]; low-dose 15 mg/kg intragastric): 1.317 ± 0.117 10^5/mL
- Monocyte count of alveolar lavage fluid ([4]; low-dose 15 mg/kg intragastric): 3.871 ± 0.544 10^5/mL
- Neutrophil count of alveolar lavage fluid ([4]; low-dose 15 mg/kg intragastric): 1.129 ± 0.287 10^5/mL
- IL-1β in lung tissue ([4]; low-dose 15 mg/kg intragastric): 47.18 ± 6.822 pg/mL
- IL-6 in lung tissue ([4]; low-dose 15 mg/kg intragastric): 1483 ± 300.3 pg/mL
- IL-18 in lung tissue ([4]; low-dose 15 mg/kg intragastric): 180.1 ± 6.667 pg/mL
- LTB4 in lung tissue ([4]; low-dose 15 mg/kg intragastric): 8344 ± 1356#^ pg/mL
- TNF-α in lung tissue ([4]; low-dose 15 mg/kg intragastric): 126.3 ± 10.34 pg/mL

Compound: C[C@@H]1O[C@@H](O[C@H]2[C@H](Oc3cc(O)c4c(c3)O[C@H](c3ccc(O)cc3)CC4=O)O[C@H](CO)[C@@H](O)[C@@H]2O)[C@H](O)[C@H](O)[C@H]1O [Naringin, naringin]
- LDH Activity in Lung [2, 7]: 310.93 ± 27.77 units/gprot
- MPO Activity in Lung [2, 7]: 1.913 ± 0.262 units/gprot
- MPO Content in Lung [2, 7]: 415.85 ± 52.15 pg/mL
- Lung Tissue Dry-to-wet Ratio [2, 7]: 5.15 ± 0.47
- Effect on lung inflammation, pulmonary edema, neutrophil infiltration and cell necrosis in ALI (in words) ([2]; 180 mg/kg intragastric, P<0.01 vs model control): effectively inhibit the progress of lung inflammation in the ALI and alleviate pulmonary edema, local neutrophil infiltration and cell necrosis

Compound: O=C(Nc1c(Cl)cncc1Cl)c1ccc(OC(F)F)c(OCC2CC2)c1 [Roflumilast, roflumilast, reference compound]
- Cchord ([4]; 5 mg/kg intragastric): 0.042 ± 0.0054 mL/cm H2O
- FEV50/FVC ([4]; 5 mg/kg intragastric): 0.367 ± 0.042
- Lymphocyte count of alveolar lavage fluid ([4]; 5 mg/kg intragastric): 0.914 ± 0.227## 10^5/mL
- Monocyte count of alveolar lavage fluid ([4]; 5 mg/kg intragastric): 3.014 ± 0.319## 10^5/mL
- Neutrophil count of alveolar lavage fluid ([4]; 5 mg/kg intragastric): 0.729 ± 0.180## 10^5/mL
- IL-1β in lung tissue ([4]; 5 mg/kg intragastric): 34.02 ± 7.098 pg/mL
- IL-6 in lung tissue ([4]; 5 mg/kg intragastric): 963.2 ± 188.8 pg/mL
- IL-18 in lung tissue ([4]; 5 mg/kg intragastric): 143.4 ± 18.34 pg/mL
- LTB4 in lung tissue ([4]; 5 mg/kg intragastric): 6809 ± 670.8 pg/mL
- TNF-α in lung tissue ([4]; 5 mg/kg intragastric): 102.4 ± 17.34 pg/mL
